From PubChem BioAssay AID248 (DTP/NCI, 2004)
Toxic doses and inconclusive results are not listed. Rule as the data show it: active = T/C of 150% or more; inactive = T/C below 125%.

Test system: L1210 leukemia ip in BDF1 mice, survival T/C
Test: NCI In Vivo Anticancer Drug Screen. Data for tumor model L1210 Leukemia (intraperitoneal) in B6D2F1 (BDF1) mice
Settings: endpoint: mean survival time, higher = longer survival
Procedure, shortened: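 Tumor cells were implanted, animals were treated, and survival was followed. The result divides the treated measurement by the vehicle-control measurement.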

[1] = dose: 50.0 mg/kg/injection, schedule: Q01DX001 (ip), vehicle: carboxymethylcellulose (CMC)
[2] = dose: 100.0 mg/kg/injection, schedule: Q01DX001 (ip), vehicle: carboxymethylcellulose (CMC)
[3] = dose: 200.0 mg/kg/injection, schedule: Q01DX001 (ip), vehicle: carboxymethylcellulose (CMC)
[4] = dose: 400.0 mg/kg/injection, schedule: Q01DX001 (ip), vehicle: carboxymethylcellulose (CMC)
[5] = dose: 100.0 mg/kg/injection, schedule: Q01DX009 (ip), vehicle: saline with Tween-80
[6] = dose: 100.0 mg/kg/injection, schedule: Q04DX003 (ip), vehicle: saline with Tween-80
[7] = dose: 200.0 mg/kg/injection, schedule: Q01DX009 (ip), vehicle: saline with Tween-80
[8] = dose: 200.0 mg/kg/injection, schedule: Q04DX003 (ip), vehicle: saline with Tween-80
[9] = dose: 400.0 mg/kg/injection, schedule: Q01DX009 (ip), vehicle: saline with Tween-80
[10] = dose: 400.0 mg/kg/injection, schedule: Q04DX003 (ip), vehicle: saline with Tween-80
[11] = dose: 100.0 mg/kg/injection, schedule: Q01DX009 (ip), vehicle: Klucel (hydroxypropylcellulose) (HPC)
[12] = dose: 200.0 mg/kg/injection, schedule: Q01DX009 (ip), vehicle: Klucel (hydroxypropylcellulose) (HPC)
[13] = dose: 400.0 mg/kg/injection, schedule: Q01DX009 (ip), vehicle: Klucel (hydroxypropylcellulose) (HPC)
[14] = dose: 100.0 mg/kg/injection, schedule: Q04DX003 (ip), vehicle: Klucel (hydroxypropylcellulose) (HPC)
[15] = dose: 200.0 mg/kg/injection, schedule: Q04DX003 (ip), vehicle: Klucel (hydroxypropylcellulose) (HPC)
[16] = dose: 400.0 mg/kg/injection, schedule: Q04DX003 (ip), vehicle: Klucel (hydroxypropylcellulose) (HPC)

Measured: T/C

CC1(C)C2CCC(OC(=O)c3ccc([N+](=O)[O-])cc3)C1C2 (centres undefined)
inactive: [1] 102 % of control | [2] 102 % of control | [3] 93 % of control | [4] 87 % of control

Cc1ccc(Nc2cc(N)nc(N)n2)cc1Cl
inactive: dose: 100.0 mg/kg/injection, schedule: Q01DX Z (ip), vehicle: methylcellulose (MC) 101 % of control | dose: 200.0 mg/kg/injection, schedule: Q01DX Z (ip), vehicle: methylcellulose (MC) 89 % of control

CC(=S)Nc1ccc2ccccc2c1
inactive: [5] 94 % of control | [6] 101 % of control | [7] 94 % of control | [8] 104 % of control | [9] 109 % of control | [10] 101 % of control

COc1ccccc1C(=O)N/N=C/c1ccc(O)cc1O
inactive: [11] 102 % of control | [12] 96 % of control | [13] 100 % of control

CCCCCCCCCCCCCCC(=O)c1ccccc1
inactive: [11] 100 % of control | [14] 105 % of control | [12] 102 % of control | [15] 102 % of control | [13] 95 % of control | [16] 104 % of control

CN(C)CCN=Cc1[nH]c(=S)[nH]c(=O)c1CCc1ccccc1
inactive: dose: 100.0 mg/kg/injection, schedule: Q01DX001 (ip), vehicle: saline with Tween-80 93 % of control | dose: 200.0 mg/kg/injection, schedule: Q01DX001 (ip), vehicle: saline with Tween-80 97 % of control | dose: 400.0 mg/kg/injection, schedule: Q01DX001 (ip), vehicle: saline with Tween-80 95 % of control

Nc1c(Cl)cc([N+](=O)[O-])cc1Cl
inactive: [1] 95 % of control | [2] 92 % of control | [5] 103 % of control | [6] 97 % of control | [3] 106 % of control | [7] 92 % of control | [8] 93 % of control | [4] 95 % of control | [9] 95 % of control | [10] 93 % of control

C=C(C)Cc1c(C)c(C)c(OS(=O)(=O)c2ccc(Br)cc2)c(C)c1C
inactive: dose: 50.0 mg/kg/injection, schedule: Q04DX003 (ip), vehicle: gum acacia 89 % of control | dose: 100.0 mg/kg/injection, schedule: Q04DX003 (ip), vehicle: gum acacia 89 % of control | dose: 200.0 mg/kg/injection, schedule: Q04DX003 (ip), vehicle: gum acacia 91 % of control

CCCCn1c(C)cc2c(c1=O)COC(=O)C2CC (centres undefined)
inactive: dose: 2.5 mg/kg/injection, schedule: Q04DX003 (ip), vehicle: saline 100 % of control | dose: 5.0 mg/kg/injection, schedule: Q04DX003 (ip), vehicle: saline 100 % of control | dose: 10.0 mg/kg/injection, schedule: Q04DX003 (ip), vehicle: saline 95 % of control | dose: 20.0 mg/kg/injection, schedule: Q04DX003 (ip), vehicle: saline 97 % of control | dose: 40.0 mg/kg/injection, schedule: Q04DX003 (ip), vehicle: saline 94 % of control | dose: 80.0 mg/kg/injection, schedule: Q04DX003 (ip), vehicle: saline 95 % of control

CCN(CC)C(=O)CCC(=O)O
inactive: dose: 100.0 mg/kg/injection, schedule: Q04DX002 (ip), vehicle: saline 89 % of control | dose: 200.0 mg/kg/injection, schedule: Q04DX002 (ip), vehicle: saline 103 % of control | dose: 400.0 mg/kg/injection, schedule: Q04DX002 (ip), vehicle: saline 103 % of control

O=C(NN(c1ccc([N+](=O)[O-])cc1)c1ccc([N+](=O)[O-])cc1)c1ccccc1
inactive: dose: 50.0 mg/kg/injection, schedule: Q01DX009 (ip), vehicle: Klucel (hydroxypropylcellulose) (HPC) 103 % of control | [11] 100 % of control | [14] 94 % of control | [12] 102 % of control | [15] 93 % of control | [13] 102 % of control | [16] 94 % of control

O=C(O)c1c(-c2ccccc2)[nH]c2cc(Cl)ccc2c1=O
inactive: [1] 113 % of control | [2] 113 % of control | [11] 112 % of control | [14] 104 % of control | [3] 107 % of control | [12] 106 % of control | [15] 107 % of control | [16] 104 % of control

CC1(C)C2CCC1(C)C2C=O (centres undefined)
inactive: [11] 96 % of control | [12] 93 % of control | [13] 96 % of control

CC1CCc2cc3c(cc2C1=O)sc1ccccc13 (centres undefined)
inactive: dose: 100.0 mg/kg/injection, schedule: Q01DX001 (ip), vehicle: saline 108 % of control | dose: 200.0 mg/kg/injection, schedule: Q01DX001 (ip), vehicle: saline 105 % of control | dose: 400.0 mg/kg/injection, schedule: Q01DX001 (ip), vehicle: saline 89 % of control

CCOC(C#CC1CCCC1)OCC
inactive: dose: 50.0 mg/kg/injection, schedule: Q01DX009 (ip), vehicle: saline with Tween-80 95 % of control | [5] 92 % of control | [7] 100 % of control

O=[N+]([O-])c1cc(Cl)c(O)c(Cl)c1Cl
inactive: dose: 25.0 mg/kg/injection, schedule: Q01DX009 (ip), vehicle: acetone 97 % of control | dose: 50.0 mg/kg/injection, schedule: Q01DX009 (ip), vehicle: acetone 97 % of control | dose: 50.0 mg/kg/injection, schedule: Q04DX003 (ip), vehicle: acetone 95 % of control | dose: 100.0 mg/kg/injection, schedule: Q01DX001 (ip), vehicle: acetone 102 % of control | dose: 100.0 mg/kg/injection, schedule: Q01DX009 (ip), vehicle: acetone 88 % of control | dose: 100.0 mg/kg/injection, schedule: Q04DX003 (ip), vehicle: acetone 92 % of control | dose: 150.0 mg/kg/injection, schedule: Q01DX009 (ip), vehicle: saline 90 % of control | dose: 200.0 mg/kg/injection, schedule: Q01DX001 (ip), vehicle: acetone 100 % of control | dose: 225.0 mg/kg/injection, schedule: Q01DX009 (ip), vehicle: saline 87 % of control
